The text below walks through data of the NIST ThermoML archive (doi:10.1016/j.tca.2008.10.020).

The conditions of data set [1]: Crystal 2; DTA.
The nature of data set [2]: Molar enthalpy of transition or fusion. The settings on record: Crystal 2; DSC.

Numbers after ± are expanded uncertainties.

As for `[Cl][Pt][Cl]` [platinous chloride], the Triple point temperature in data set [1] turned out to be 660 ± 10 K. In addition, the “Molar enthalpy of transition or fusion” value in data set [2] was 0.0399 ± 0.0227 kcal/mol.
